Data set [1] deals with green peach aphid (Myzus persicae). Briefly: Insecticidal test for green peach aphid in foliar spray assay. The format is in vivo. The settings on record: 72 h, foliar spray on cabbage, Corrected % Control (Abbott) after three days, read-out: Rating against green peach aphid on cabbage (foliar spray). As to the method: Squash seedlings with fully expanded cotyledon leaves were trimmed to one cotyledon per plant and infested with cotton aphid (wingless adults and nymphs) 1 day prior to chemical application. Each plant was examined before chemical application to ensure uniform infestation (ca. 30-70 aphids per plant). Compounds (2 mg) were dissolved in 2 ml of acetone:methanol (1:1) solvent, forming stock solutions of 1000 ppm. The stock solutions were diluted 5× with 0.025% Tween 20 in H2O to obtain a solution at 200 ppm. A hand-held Devilbiss aspirator type sprayer was used to apply the spray solutions until runoff to both sides of the squash cotyledon leaves. Four plants (4 replications) were used for each compound. Reference plants (solvent check) were sprayed with the diluent only. Treated plants were held in a holding room for 3 days at approximately 23° C. and 40% RH before the number of live aphids on each plant was recorded. Insecticidal activity was measured by Corrected % Control using Abbott's correction formula and presented in Table 1-Activity: Corrected % Control=100*(X−Y)/X • where X=No. of live aphids on solvent check plants • Y=No. of live aphids on treated plants Results are shown in Table 7. Insecticidal Test for Green Peach Aphid (Myzus persicae) in Foliar Spray Assay Cabbage seedlings grown in 3-inch pots, with 2-3 small (3-5 cm) true leaves, were used as test substrate. The seedlings were infested with 20-50 green peach aphids (wingless adult and nymph) 1-2 days prior to chemical application. Four seedlings were used for each treatment. Compounds (2 mg) were dissolved in 2 ml of acetone:methanol (1:1) solvent, forming stock solutions of 1000 ppm. The stock solutions were diluted 5× with 0.025% Tween 20 in H2O to obtain a solution at 200 ppm. A hand-held Devilbiss aspirator sprayer was used for spraying a solution to both sides of cabbage leaves until runoff. Reference plants (solvent check) were sprayed with the diluent only. Treated plants were held in a holding room for three days at approximately 23° C. and 40% RH prior to grading. Evaluation was conducted by counting the number of live aphids per plant under a microscope. Insecticidal activity was measured by using Abbott's correction formula: Corrected % Control=100*(X−Y)/X • where X=No. of live aphids on solvent check plants • Y=No. of live aphids on treated plants

Data set [2] has as its system cotton aphid (Aphis gossypii). Briefly: Insecticidal test for cotton aphid in foliar spray assay. The format is in vivo. The settings on record: 72 h, foliar spray on squash, Corrected % Control (Abbott) after 3 days, read-out: Rating against cotton aphid on squash (foliar spray). The procedure:
The compounds identified in the foregoing examples were tested against cotton aphid using procedures described hereinafter. Insecticidal Test for Cotton Aphid (Aphis gossypii) in Foliar Spray Assay Squash seedlings with fully expanded cotyledon leaves were trimmed to one cotyledon per plant and infested with cotton aphid (wingless adults and nymphs) 1 day prior to chemical application. Each plant was examined before chemical application to ensure uniform infestation (ca. 30-70 aphids per plant). Compounds (2 mg) were dissolved in 2 ml of acetone:methanol (1:1) solvent, forming stock solutions of 1000 ppm. The stock solutions were diluted 5× with 0.025% Tween 20 in H2O to obtain a solution at 200 ppm. A hand-held Devilbiss aspirator type sprayer was used to apply the spray solutions until runoff to both sides of the squash cotyledon leaves. Four plants (4 replications) were used for each compound. Reference plants (solvent check) were sprayed with the diluent only. Treated plants were held in a holding room for 3 days at approximately 23° C. and 40% RH before the number of live aphids on each plant was recorded. Insecticidal activity was measured by Corrected % Control using Abbott's correction formula and presented in Table 1-Activity: Corrected % Control=100*(X−Y)/X • where X=No. of live aphids on solvent check plants • Y=No. of live aphids on treated plants Results are shown in Table 7. Insecticidal Test for Green Peach Aphid (Myzus persicae) in Foliar Spray Assay

Bounds are passed on as bounds.

As usually defined, the melting point is the temperature of the solid-liquid transition. `CCc1csc(N=S(C)(=O)Cc2ccc(Cl)nc2)n1` (stereo not shown) [Compound 59] yielded a melting point of 114 to 116 °C. The pest or weed control at 200 ppm in data set [1] was 80 to 100%.
Take `CC(c1ccc(C(F)(F)F)nc1)S(C)(=O)=Nc1ccc(F)cn1` (stereo not shown) [Compound 1, 3-[1-ethyl(N-(2-(5-fluoro)pyridine)-sulfoximinyl)(methyl)]-6-trifluoromethylpyridine]: the pest or weed control at 200 ppm in data set [2] and in data set [1] was 80 to 100% in each case.
On to `CC(c1ccc(C(F)(F)F)nc1)S(C)(=O)=Nc1ccccn1` (stereo not shown) [Compound 4, 3-[1-ethyl(N-(2-pyridine)-sulfoximinyl)(methyl)]-6-trifluoromethylpyridine], for which the figures for the pest or weed control at 200 ppm in data set [2] and in data set [1] were 80 to 100% and less than 80%, respectively.
As for `CCc1csc(N=S2(=O)CCCC2c2ccc(Cl)nc2)n1` (stereo not shown) [Compound 77], the melting point fell in the range of 67 to 71 °C. Also, the pest or weed control at 200 ppm in data set [1] was in the range of 80 to 100%.
The matching figures for `CCOc1ccc(-c2csc(N=S(C)(=O)C(C)c3ccc(C(F)(F)F)nc3)n2)cc1` (stereo not shown) [Compound 46]: 105 to 110 °C and 80 to 100%.
`CC(c1ccc(C(F)(F)F)nc1)S(C)(=O)=Nc1nc(-c2ccc(OC(F)(F)F)cc2)cs1` (stereo not shown) [Compound 52] yielded a melting point of 90 to 95 °C. For the same compound, the pest or weed control at 200 ppm in data set [1] was 80 to 100%.
As to `CC(c1ccc(C(F)(F)F)nc1)S(C)(=O)=Nc1nc(-c2cccnc2)cs1` (stereo not shown) [Compound 33], the melting point lay within 178 to 182 °C. Also, the pest or weed control at 200 ppm in data set [1] was 80 to 100%.
The matching figures for `CC(c1ccc(C(F)(F)F)nc1)S(C)(=O)=Nc1nc(-c2ccccn2)cs1` (stereo not shown) [Compound 35]: 134 to 141 °C and 80 to 100%.
`CC(c1ccc(C(F)(F)F)nc1)S(C)(=O)=Nc1ccncc1` (stereo not shown) [Compound 8]: the pest or weed control at 200 ppm in data set [2] and in data set [1] was less than 80% throughout.
In the case of `CC(c1ccc(C(F)(F)F)nc1)S(C)(=O)=Nc1ncccn1` (stereo not shown) [Compound 5], the pest or weed control at 200 ppm in data set [2] was less than 80%.
Turning to `CCc1csc(N=S(C)(=O)Cc2ccc(C(F)(F)F)nc2)n1` (stereo not shown) [Compound 56], the melting point fell in the range of 114 to 116 °C. The pest or weed control at 200 ppm in data set [1] was in the range of 80 to 100%.
`COc1cccc(-c2csc(N=S(C)(=O)C(C)c3ccc(C(F)(F)F)nc3)n2)c1` (stereo not shown) [Compound 44] came in with a melting point of 107 to 110 °C. In data set [1], the pest or weed control at 200 ppm was in the range of 80 to 100%.
As for `CC(c1ccc(C(F)(F)F)nc1)S(C)(=O)=Nc1nc(C2CC2)cs1` (stereo not shown) [Compound 32], the melting point is 102 to 106 °C. Moreover, the pest or weed control at 200 ppm in data set [1] was less than 80%.
In the case of `CC(c1ccc(C(F)(F)F)nc1)S(C)(=O)=Nc1ccc(Cl)cn1` (stereo not shown) [Compound 2, 3-[1-ethyl(N-(2-(5-chloro)pyridine)-sulfoximinyl)(methyl)]-6-trifluoromethylpyridine], the pest or weed control at 200 ppm in data set [2] and in data set [1] was 80 to 100% throughout.
Regarding `CC(c1ccc(C(F)(F)F)nc1)S(C)(=O)=Nc1nc(Br)cs1` (stereo not shown) [Compound 13, 5-{1-[methyl(4-bromo-1,3-thiazol-2-yl)sulfonimidoyl]ethyl}-2-(trifluoromethyl)pyridine], the pest or weed control at 200 ppm in data set [2] is 80 to 100%; in data set [1] it was less than 80%.
Regarding `CC(c1ccc(C(F)(F)F)nc1)S(C)(=O)=Nc1nc(-c2ccc(Cl)s2)cs1` (stereo not shown) [Compound 41], the melting point is 124 to 128 °C. The pest or weed control at 200 ppm in data set [1] was in the range of 80 to 100%.
Turning to `CC(c1ccc(C(F)(F)F)nc1)S(C)(=O)=Nc1ccc(C(F)(F)F)cn1` (stereo not shown) [Compound 12], the pest or weed control at 200 ppm in data set [2] is less than 80%.
On to `COc1ccc(-c2csc(N=S(C)(=O)Cc3ccc(C(F)(F)F)nc3)n2)cc1` (stereo not shown) [Compound 54], for which the melting point is 158 to 161 °C. Moreover, the pest or weed control at 200 ppm in data set [1] is less than 80%.
Compound `CC(c1ccc(C(F)(F)F)nc1)S(C)(=O)=Nc1nc(-c2ccsc2)cs1` (stereo not shown) [Compound 38] displayed a melting point of 168 to 173 °C. Also, the pest or weed control at 200 ppm in data set [1] was in the range of 80 to 100%.
Take `COc1ccc(-c2csc(N=S3(=O)CCCC3c3ccc(Cl)nc3)n2)cc1` (stereo not shown) [Compound 78]: the melting point fell in the range of 88 to 94 °C. Besides, the pest or weed control at 200 ppm in data set [1] was less than 80%.
The compound `CC(c1ccc(C(F)(F)F)nc1)S(C)(=O)=Nc1nc(-c2nccs2)cs1` (stereo not shown) [Compound 39] returned a melting point of 163 to 167 °C. The pest or weed control at 200 ppm in data set [1] fell in the range of 80 to 100%.
With `CC(c1ccc(C(F)(F)F)nc1)S(C)(=O)=Nc1nc(C(F)(F)C(F)(F)F)cs1` (stereo not shown) [Compound 30], the melting point lay in the range of 95 to 100 °C. In data set [1], the pest or weed control at 200 ppm lay within 80 to 100%.
`COc1ccc(-c2csc(N=S(C)(=O)C(C)c3ccc(C(F)(F)F)nc3)n2)cc1OC` (stereo not shown) [Compound 48] gave a melting point of 153 to 160 °C. Further, in data set [1], the pest or weed control at 200 ppm is 80 to 100%.
`CS(=O)(Cc1ccc(Cl)nc1)=Nc1nc(C(F)(F)F)cs1` (stereo not shown) [Compound 58]: the melting point lay within 122 to 125 °C. The pest or weed control at 200 ppm in data set [1] was in the range of 80 to 100%.
The compound `CC(c1ccc(C(F)(F)F)nc1)S(C)(=O)=Nc1nc(-c2ccc(C#N)cc2)cs1` (stereo not shown) [Compound 43] yielded a melting point of 78 to 80 °C. Also, in data set [1], the pest or weed control at 200 ppm lay in the range of 80 to 100%.
Compound `COc1ccccc1-c1csc(N=S(C)(=O)C(C)c2ccc(C(F)(F)F)nc2)n1` (stereo not shown) [Compound 51] registered a melting point of 72 to 77 °C. For the same compound, the pest or weed control at 200 ppm in data set [1] was in the range of 80 to 100%.
For `CC(c1ccc(C(F)(F)F)nc1)S(C)(=O)=Nc1nc(-c2ccc(F)cc2)cs1` (stereo not shown) [Compound 27, 5-{1-[methyl(4-(4-fluorophenyl)-1,3-thiazol-2-yl)sulfonimidoyl]ethyl}-2-(trifluoromethyl)pyridine], in that order: 89 to 94 °C and 80 to 100%.
Consider `CC(c1ccc(C(F)(F)F)nc1)S(C)(=O)=Nc1ccc([N+](=O)[O-])cn1` (stereo not shown) [Compound 7], for which the pest or weed control at 200 ppm in data set [2] and in data set [1] was 80 to 100% each time.
`CC(c1ccc(C(F)(F)F)nc1)S(C)(=O)=Nc1nc(-c2ccccc2)cs1` (stereo not shown) [Compound 15] displayed a melting point of 88 to 93 °C. For the same compound, the pest or weed control at 200 ppm in data set [1] is 80 to 100%.
For `CS(=O)(Cc1ccc(C(F)(F)F)nc1)=Nc1nc(C(F)(F)F)cs1` (stereo not shown) [Compound 55], the melting point was in the range of 126 to 128 °C. Besides, the pest or weed control at 200 ppm in data set [1] fell in the range of 80 to 100%.
Compound `CC(c1ccc(C(F)(F)F)nc1)S(C)(=O)=Nc1nc(-c2ccc(Br)cc2)co1` (stereo not shown) [Compound 75] displayed a melting point of 134 to 137 °C. In addition, in data set [1], the pest or weed control at 200 ppm was less than 80%.
The compound `CC(c1ccc(C(F)(F)F)nc1)S(C)(=O)=Nc1nc(C(C)(C)C)cs1` (stereo not shown) [Compound 29] returned a melting point of 144 to 148 °C. The pest or weed control at 200 ppm in data set [1] was 80 to 100%.
As for `CC(c1ccc(C(F)(F)F)nc1)S(C)(=O)=Nc1cccc[n+]1[O-]` (stereo not shown) [Compound 24, 3-[1-ethyl(N-(1-oxy-pyridin-2-e)-sulfoximinyl)(methyl)]-6-trifluoromethylpyridine], the figures for the pest or weed control at 200 ppm in data set [2] and in data set [1] were 80 to 100% and less than 80%, respectively.
As to `CC(c1ccc(C(F)(F)F)nc1)S(C)(=O)=Nc1nccs1` (stereo not shown) [Compound 6], the pest or weed control at 200 ppm in data set [2] and in data set [1] was 80 to 100% each time.
For the compound `CC(c1ccc(C(F)(F)F)nc1)S(C)(=O)=Nc1nc(-c2ccc(Br)s2)cs1` (stereo not shown) [Compound 37], the melting point lay in the range of 160 to 165 °C. Further, the pest or weed control at 200 ppm in data set [1] lay within 80 to 100%.
`CC(C)(C)c1csc(N=S2(=O)CCCC2c2ccc(Cl)nc2)n1` (stereo not shown) [Compound 76] gave a melting point of 77 to 81 °C. Besides, the pest or weed control at 200 ppm in data set [1] fell in the range of 80 to 100%.

The values above are taken from patent publication US8513462B2, “Pesticides and uses thereof” (Dow AgroSciences LLC, priority 2007, dated 2013).
